# Measurements as given in article PMC7724630, “Improving the Stability of EGFR Inhibitor Cobalt(III) Prodrugs” (Inorganic Chemistry, 2020).
# “And” between values parts separate entries of the source, which are not always exact repeats. Equal entries are not always repeated. Where two headings read alike, the source gives them in different places. Marks after values point to notes of the source that are not given here.
# Columns and labels:
# [1] = cited from earlier work
# [2] = tested on: EGFR phosphorylation at position Y1068 and ERK 1/2 in A431 cells; experiment: Western blot of EGFR signaling (pEGFR Y1068, pERK 1/2) after EGF stimulation; format: cell-based, Human; details: A431 serum-starved, 2 h drug, EGF 50 ng/mL 10 min, normoxic
# A431 cancer cells [3] = experiment: MTT-based cytotoxicity assay under different O2 levels; format: cell-based, Human; details: A431, 72 h
# [4] = Cyclic voltammetry, cathodic peak potential Co(III)/Co(II); format: physicochemical; details: 10 mM phosphate buffer pH 7.40, 0.1 M KCl, scan rate 30 mV/s, 1.5 mM complex
# Procedure: As the reduction process is crucial for the activation of cobalt(III)-based prodrug systems, the redox properties of the complexes were investigated to elucidate the effects of ligand methylation at different positions. Cyclic voltammetry measurements were performed in aqueous solution at pH 7.40 (10 mM phosphate buffer with 0.1 M KCl). […] Also, at a much higher scan speed of 1000 mV/s, the redox processes were still completely irreversible (Figure S5).
# The compounds were dissolved in 10 mM phosphate buffer (pH 7.40), with 0.1 M KCl as the supporting electrolyte, to obtain a final concentration of 1.5 mM. Electrochemical experiments were conducted on an EG&G PARC 273A potentiostat/galvanostat with scan rates of 30 and 1000 mV/s at room temperature. Argon was bubbled through the solution before every measurement to remove oxygen. A three-electrode configuration cell was used with a glassy carbon electrode as the working electrode, which was polished before every measurement. The reference electrode was Ag/AgCl/KCl (3.5 M), and the auxiliary electrode was a platinum wire. Electrodes were conditioned regularly in 1 M H2SO4 for 5–10 cycles between voltage limits of −1.0 and 1.0 V at a scan rate of 100 mV/s. The system was calibrated with 1.5 mM K3[Fe(CN)6] for every experiment. Redox potentials measured relative to the Ag/AgCl/KCl (3.5 M) reference electrode were converted for potentials against NHE by the addition of 0.205 V. Measurements were repeated at least three times, and the mean values were calculated.
# A431 cancer cells [5] = details: cited from earlier work
# [6] = Proton dissociation constants by pH-potentiometric titration; format: physicochemical; details: pH-potentiometry, 25.0 °C, I = 0.1 M (KCl)
# Description: After reductive activation of the cobalt(III) prodrugs, it is essential to investigate whether the formed cobalt(II) complexes indeed can release the coordinated targeting ligand. For this reason, we selected two ternary systems as models to study the potential liberation of the (N,N) ligand from the mixed-ligand cobalt complex upon reduction. Thus, the aqueous stability of several cobalt(II) complexes was investigated under strictly anaerobic conditions. Due to the limited water solubility of cobalt(II) chloride complexes with L, model ligands with better solubility, namely, MeEn and PhEn, were used. First, deprotonation processes of the acetlyacetone (Hacac) and the fully protonated MeEn and PhEn ligands were followed at pH 2.0–11.5 (Table 2).
# (§1) For determination of the proton dissociation (Ka) and formation constants (β) pH-potentiometric measurements were carried out at 25 ± 0.1 °C and an ionic strength (I) of 0.10 M (KCl) to keep the activity coefficients constant. A carbonate-free KOH solution (0.10 M) was used for titrations. The exact concentrations of HCl and KOH were determined by pH-potentiometric titrations. A Metrohm-combined electrode (type 6.0234.100) connected to an Orion 710A pH-meter and a computer-controlled Methrom 665 Dosimat buret (increment, 1 μL; precision, 2 μL) were used for the pH-potentiometric measurements. […] The determined average water ionization constant (pKw = 13.76 ± 0.01) corresponds well to the literature data.[37] Titration points included in the calculations gave a reproducibility within 0.005 pH unit. Titrations were performed in the pH range of 2.0–11.5, and the initial volume of the samples was 10 mL. Binary systems contained 1 or 2 mM ligand, and metal:ligand ratios of 1:1, 1:2, 1:3, and 1:4 were used. In the ternary systems, the cobalt(II) concentration was 1 mM and the two types of ligands (A, acac, and B, MeEn, or PhEn) were varied as follows: 1:1:1, 1:2:1, 1:1:2, and 1:2:2 Co(II):A:B. The samples were degassed by bubbling purified argon through them for 10 min prior to the measurements, and argon was also passed over the solutions during the titrations.
# [7] = Overall stability constants of binary and ternary cobalt(II) complexes by pH-potentiometry; format: physicochemical; details: for fraction of ligand coordinated to cobalt(II): 1:2:1 cobalt(II)-acac-ligand system, computed from stability constants; for log β [Co(II)A2B]0 ternary complex / log β [Co(II)AB2]+ ternary complex / log β [Co(II)AB]+ ternary complex: A = acac, B = MeEn or PhEn
# Procedure: Following the determination of the stability constants for the binary complexes (Table 2), overall stability constants for the mixed-ligand complexes formed in the cobalt(II)–acac–MeEn and cobalt(II)–acac–PhEn ternary systems were calculated on the basis of pH-potentiometric titrations. Three types of complexes were formed, [CoAB]^+, [CoA2B], and [CoAB2]^+, where “A” denotes acac and “B” refers to MeEn or PhEn. Concentration distribution curves in Figure 5 were computed using the stability constants of the 1:2:1 cobalt(II)–acac–PhEn composition that corresponds to the reduced form of Co(II)(acac)2L^0. […] For the 1:2:1 cobalt(II)–acac–MeEn system, ∼11% are still coordinated to cobalt(II) at pH 7.4 (Figure S6). However, it has to be mentioned that these calculations were performed for 1 mM cobalt(II) (where the titrations were performed), and the amount of the intact ternary complex further decreases with lower concentrations [e.g., in the latter system at pH 7.4 and 0.1 mM cobalt(II), the coordinated MeEn fraction is only ∼2%].
# as §1
# The stoichiometry of the complexes and overall stability constants were established by the computer program Hyperquad2013.[53] For the general equilibrium β(MpLqHr) is defined as [drawing 2] 1 where M denotes the cobalt(II) ion and L the completely deprotonated ligand. The calculations were performed as reported in our previous work.[54]
# EGFR (ErbB1) = EGFR (ErbB1) (Homo sapiens, UniProt P00533); experiment: Cell-free kinase inhibition assay (ZLYTE, Select Screen); format: biochemical; details: 10 μM ATP (10-fold excess of ATP), 1% DMSO
# [8] = I = 0.1 M NaClO4; cited from earlier work
# [9] = pH 7.0, NAD+/NADH or GSSG/GSH couple
# [10] = 25.0 °C, I = 0.1 M (KCl), anaerobic
# [11] = Homo sapiens, A-431, 1% O2, read-out: IC50 hypoxia with 1% O2
# [12] = Homo sapiens, A-431, 21% O2, read-out: IC50 normoxia
# Chain of EGFR (ErbB1) (P00533 25-1210): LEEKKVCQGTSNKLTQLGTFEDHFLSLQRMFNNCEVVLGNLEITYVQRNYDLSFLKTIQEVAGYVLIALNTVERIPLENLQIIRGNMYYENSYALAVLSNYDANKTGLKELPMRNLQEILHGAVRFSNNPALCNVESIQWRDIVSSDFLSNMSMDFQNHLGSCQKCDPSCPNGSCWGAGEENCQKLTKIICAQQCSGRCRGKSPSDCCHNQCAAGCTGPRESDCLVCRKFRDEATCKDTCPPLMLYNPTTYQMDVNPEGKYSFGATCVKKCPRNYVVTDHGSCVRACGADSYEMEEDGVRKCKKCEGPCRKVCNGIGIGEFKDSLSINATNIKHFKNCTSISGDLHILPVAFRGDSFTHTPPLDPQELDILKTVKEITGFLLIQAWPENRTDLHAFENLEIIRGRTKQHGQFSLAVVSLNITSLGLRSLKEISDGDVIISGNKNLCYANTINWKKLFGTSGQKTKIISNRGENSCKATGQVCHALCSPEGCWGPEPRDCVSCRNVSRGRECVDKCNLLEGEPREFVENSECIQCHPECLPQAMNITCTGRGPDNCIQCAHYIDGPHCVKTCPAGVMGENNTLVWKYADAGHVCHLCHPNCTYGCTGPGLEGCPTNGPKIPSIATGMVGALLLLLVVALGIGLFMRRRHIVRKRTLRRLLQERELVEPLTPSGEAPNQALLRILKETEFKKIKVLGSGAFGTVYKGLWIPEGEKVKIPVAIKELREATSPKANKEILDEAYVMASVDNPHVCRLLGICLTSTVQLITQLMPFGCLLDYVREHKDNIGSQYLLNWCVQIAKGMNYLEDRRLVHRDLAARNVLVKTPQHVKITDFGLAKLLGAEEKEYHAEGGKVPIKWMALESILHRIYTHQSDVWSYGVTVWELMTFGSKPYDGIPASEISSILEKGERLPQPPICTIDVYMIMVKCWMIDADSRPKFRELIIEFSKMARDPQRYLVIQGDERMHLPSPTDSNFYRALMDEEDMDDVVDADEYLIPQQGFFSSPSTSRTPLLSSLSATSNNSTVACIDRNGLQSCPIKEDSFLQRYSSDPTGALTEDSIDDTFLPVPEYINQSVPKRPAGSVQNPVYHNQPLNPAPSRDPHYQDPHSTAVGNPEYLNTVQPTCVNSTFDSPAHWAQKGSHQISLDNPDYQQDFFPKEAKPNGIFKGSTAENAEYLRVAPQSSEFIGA
compound,measurement,setting,value
"O=C1O[C@H]([C@@H](O)CO)C(O)=C1O [AA, ascorbic acid]","formal potential, higher values suggested by recent literature",[1],0.35–0.50 V
same,formal potential,[1]; dehydro-L-ascorbate/AA at pH 7.0,0.06 V
"CC(=O)[C-](C)C(C)=O.CC(=O)[C-](C)C(C)=O.CNCCNc1ccc2ncnc(Nc3cccc(Br)c3)c2c1.[Cl-].[Co+3] [Co(Meacac)2MeL^+, Bis(3-methyl-2,4-pentanedionato) N^4-(3-Bromophenyl)-N^6-[2-(methylamino)ethyl]quinazoline-4,6-diamine Cobalt(III) Chloride]","EGFR-inhibitory potential (pEGFR, pERK 1/2)",[2],distinctly weakened EGFR-inhibitory potential
same,increase in cytotoxicity at 0.1% O2 compared to normoxic conditions,A431 cancer cells [3],2.9 fold
same,IC50,"A431 cancer cells [3]; 0.1% O2, read-out: IC50 hypoxia with 0.1% O2",19.9 ± 1 µM
same,IC50,"A431 cancer cells [3]; 1% O2, read-out: IC50 hypoxia with 1% O2",~32 µM and 32 µM
same,IC50,"A431 cancer cells [3]; 5% O2, read-out: IC50 hypoxia with 5% O2",55.2 ± 1.4 µM
same,IC50,"A431 cancer cells [3]; 21% O2, read-out: IC50 normoxia",58.6 ± 4.4 µM
same,cathodic peak potential (Ec) vs NHE,[4],17 mV
[Cl-].[Cl-].[Co+2] [CoCl2],cytotoxic activity,A431 cancer cells [5],No significant cytotoxic activity
"N[C@@H](CCC(=O)N[C@@H](CS)C(=O)NCC(=O)O)C(=O)O [GSH, Glutathione]",formal potential,[1]; [9],−0.24 V
"CNCCN [MeEn, N-methylethylenediamine]",pKa1,[6],7.04 ± 0.02
same,pKa2,[6],9.98 ± 0.01
same,fraction of ligand coordinated to cobalt(II),"[7]; pH 7.4, 0.1 mM cobalt(II)",~2%
same,fraction of ligand coordinated to cobalt(II),"[7]; pH 7.4, 1 mM cobalt(II)",~11%
same,log β [Co(II)L2] binary complex,[7]; [10],9.15 ± 0.02
same,log β [Co(II)L3] binary complex,[7]; [10],12.94 ± 0.04
same,log β [Co(II)L] binary complex,[7]; [10],5.26 ± 0.01
same,log β [Co(II)A2B]0 ternary complex,"[7]; 25.0 °C, I = 0.1 M (KCl)",12.73 ± 0.09
same,log β [Co(II)AB2]+ ternary complex,"[7]; 25.0 °C, I = 0.1 M (KCl)",13.20 ± 0.12
same,log β [Co(II)AB]+ ternary complex,"[7]; 25.0 °C, I = 0.1 M (KCl)",9.82 ± 0.05
"CNCCNc1ccc2ncnc(Nc3cccc(Br)c3)c2c1.Cl.Cl [MeL, N^4-(3-Bromophenyl)-N^6-[2-(methylamino)ethyl]quinazoline-4,6-diamine Dihydrochloride]","EGFR-inhibitory potential (pEGFR, pERK 1/2)",[2],potent EGFR inhibition
same,IC50,EGFR (ErbB1),0.00041 µM
same,anticancer activity relative to L,A431 cancer cells [3],approximately twice as effective as L
same,IC50,"A431 cancer cells [3]; Homo sapiens, A-431, 0.1% O2, read-out: IC50 hypoxia with 0.1% O2",5.4 ± 0.8 µM
same,IC50,A431 cancer cells [3]; [11],5.5 ± 0.4 µM
same,IC50,"A431 cancer cells [3]; Homo sapiens, A-431, 5% O2, read-out: IC50 hypoxia with 5% O2",8.7 ± 1.2 µM
same,IC50,A431 cancer cells [3]; [12],6.9 ± 1.8 µM
"NC(=O)C1=CN([C@@H]2O[C@H](COP(=O)(O)OP(=O)(O)OC[C@H]3O[C@@H](n4cnc5c(N)ncnc54)[C@H](O)[C@@H]3O)[C@@H](O)[C@H]2O)C=CC1 [NADH, reduced nicotinamide adenine dinucleotide]",formal potential,[1]; [9],−0.32 V
"NCCNc1ccccc1 [PhEn, N-phenylethylenediamine]",pKa1,[6],1.85 ± 0.01 ^c
same,pKa2,[6],9.34 ± 0.01 ^c
same,fraction of ligand coordinated to cobalt(II),"[7]; pH 7.4, 1 mM cobalt(II)",< 1%
same,log β [Co(II)L2] binary complex,[7]; [10],6.75 ± 0.09
same,log β [Co(II)L] binary complex,[7]; [10],3.63 ± 0.05
same,log β [Co(II)A2B]0 ternary complex,"[7]; 25.0 °C, I = 0.1 M (KCl)",12.08 ± 0.09
same,log β [Co(II)AB2]+ ternary complex,"[7]; 25.0 °C, I = 0.1 M (KCl)",11.29 ± 0.13
same,log β [Co(II)AB]+ ternary complex,"[7]; 25.0 °C, I = 0.1 M (KCl)",8.03 ± 0.15
CC(=O)C=C(C)[O-].CC(=O)C=C(C)[O-].NCCN.[Co+2] [[Co(II)(acac)2en]],cytotoxic activity,"A431 cancer cells [5]; A431 cells, both normoxia and hypoxia",No significant cytotoxic activity
"CC(=O)CC(C)=O [acac, acetylacetone]",pKa1,[6],8.80 ± 0.01 ^b
same,log β [Co(II)L2] binary complex,[7]; [10],8.66 ± 0.05 ^b
same,log β [Co(II)L] binary complex,[7]; [10],5.05 ± 0.02 ^b
same,pKa,[8],8.82
"C#Cc1cccc(Nc2ncnc3cc(OCCOC)c(OCCOC)cc23)c1 [erlotinib, reference compound]",IC50,A431 cancer cells [3]; [11],14.4 ± 4 µM
same,IC50,A431 cancer cells [3]; [12],13.3 ± 4.7 µM
"Bis(2,4-pentanedionato) (Methyl-1,2-ethanediamine) Cobalt(III) Hexafluorophosphate [Co(acac)2MeEn^+]",cathodic peak potential (Ec) vs NHE,[4],-152 mV
"Bis(3-methyl-2,4-pentanedionato) (Methyl-1,2-ethanediamine) Cobalt(III) Hexafluorophosphate [Co(Meacac)2MeEn^+]",cathodic peak potential (Ec) vs NHE,[4],-200 mV
